Laboratory results as given in patent publication US8389555B2, “Medicaments” (Motac Neuroscience Limited, priority 2007, dated 2013).
Structures can show the parent of a compound that is named as a salt.

Assays:
[1] = molecular target: T1, recombinant human D2(short) dopamine receptor (Homo sapiens, UniProt P14416); test: Dopamine D2S receptor binding assay ([3H]spiperone, CHO cell membranes); settings: human D2S receptors in CHO cells, 0.2 nM [3H]spiperone, mean ± SEM; read-out: Affinity Ki (D2)
T1 construct: expressed in transfected cells; host or cells: CHO-D2S cells (per Hayes et al. 1992)
Method: (§1) Compounds synthesized in Examples A, B, C and D were assayed to test their affinity for dopamine D3 and D2 receptors.
(§2) METHODS: Dopamine D2S and D3 Receptor Binding Assays
CHO-D2S cells, expressing the recombinant human D2(short) dopamine receptor gene, (Hayes, G. et al., J. Mol. Endocrinol. 1992, 6, 920-926) were grown in Dulbecco's modified Eagle's medium/nutrient mixture F12 1:1 mixture supplemented with 2 mM glutamine, 10% fetal bovine serum, and 10 μl·ml^−1 penicillin/streptomycin in an atmosphere of 5% CO2 at 37° C. (Gibco™, Karlsruhe, Germany).
(§3) Human D2S- and D3 receptors expressing cell lines were grown to confluence. The medium was removed, and the cells were washed with 10 ml PBS buffer (140 mM NaCl, 3 mM KCl, 1.5 mM KH2PO4, 8 mM Na2HPO4, pH 7.4) at 4° C. After removing the wash buffer, the cells were scraped from the flasks into 15 ml of ice-cold media, and centrifuged at 3,000 rpm for 10 minutes at 4° C. After centrifugation the medium was removed and the […] resuspended in ice-cold Tris-HCl buffer containing 5 mM MgCl2, pH 7.4 and disrupted with a Polytron and centrifuged at 20,000 rpm, for 30 minutes at 4° C. The pellet was resuspended by sonication in ice-cold Tris-HCl buffer (containing 5 mM MgCl2, pH 7.4), membrane aliquots were stored at −70° C. Determination of membrane protein was carried out by the method of Bradford (Bradford, M. M. Anal Biochem 1976, 72, 248-54).
(§4) Cell membranes containing human D2S and D3 receptors from CHO cells were thawed, rehomogenized with sonication at 4° C. in Tris-HCl, pH 7.4 containing 120 mM NaCl, 5 mM KCl, 2 mM CaCl2 and 1 mM MgCl2 (incubation buffer), and incubated with 0.2 nM [^3H]spiperone (106 Ci·mmol^−1, Amersham Biosciences, Freiburg, Germany), and drug diluted in incubation buffer. Non-specific binding was determined in the presence of 10 μM BP 897 ((Wermuth, C. G. et al. in Chem. Abstr. (Eur. Pat. 0779284, 1997)). Incubations were run at 25° C. for 120 min, and terminated by rapid filtration through PerkinElmer GF/B glass fibre filters (PerkinElmer Life Sciences, Rodgau, Germany) coated in 0.3% polyethylenimine (Sigma-Aldrich, Taufkirchen, Germany) using an Inotech cell harvester (Inotech AG, Dottikon, Switzerland). Unbound radioligand was removed with four washes of 1 ml of ice-cold 50 mM Tris-HCl buffer, pH 7.4, containing 120 mM NaCl. The filters were soaked in 9 ml Beta plate scint scintillator and counted using a PerkinElmer MicroBeta®Trilux scintillation counter (PerkinElmer Life Sciences). Competition binding data were analyzed by the software GraphPad Prism™ (2000, version 3.02, San Diego, Calif., USA), using non-linear least squares fit. For detailed screening the compounds have been tested at seven concentrations in triplicate carrying out three to five separate binding experiments for human dopamine D2S and for human dopamine D3 receptors and expressed as mean±standard error of the mean (SEM). Ki values were calculated from the IC50 values according to Cheng-Prusoff equation (Cheng, Y. C., Prusoff, W. H. Biochem. Pharmacol. 1973, 22, 3099-3108.).

[2] = molecular target: T2, human dopamine D3 receptors (Homo sapiens, UniProt P35462); test: Dopamine D3 receptor binding assay ([3H]spiperone, CHO cell membranes); settings: for Ki: human D3 receptors in CHO cells, 0.2 nM [3H]spiperone, mean ± SEM, read-out: Affinity Ki (D3); for Selectivity Ki(D2)/Ki(D3): ratio of Ki(D2) to Ki(D3)
T2 construct: expressed in transfected cells
Method: as §1, §2
Human D3 receptors stably expressed in CHO cells were used as described by Sokoloff et al. (Sokoloff, P. et al., Eur. J. Pharmacol. 1992, 225, 331-337). The cell line was cultured in Dulbecco's modified Eagle's medium supplemented with 2 mM glutamine, and 10% dialyzed fetal bovine serum, and were grown in an atmosphere of 5% CO2 at 37° C. (Gibco™).
as §3, §4

T1 sequence (P14416 1-414 isoform P14416-2): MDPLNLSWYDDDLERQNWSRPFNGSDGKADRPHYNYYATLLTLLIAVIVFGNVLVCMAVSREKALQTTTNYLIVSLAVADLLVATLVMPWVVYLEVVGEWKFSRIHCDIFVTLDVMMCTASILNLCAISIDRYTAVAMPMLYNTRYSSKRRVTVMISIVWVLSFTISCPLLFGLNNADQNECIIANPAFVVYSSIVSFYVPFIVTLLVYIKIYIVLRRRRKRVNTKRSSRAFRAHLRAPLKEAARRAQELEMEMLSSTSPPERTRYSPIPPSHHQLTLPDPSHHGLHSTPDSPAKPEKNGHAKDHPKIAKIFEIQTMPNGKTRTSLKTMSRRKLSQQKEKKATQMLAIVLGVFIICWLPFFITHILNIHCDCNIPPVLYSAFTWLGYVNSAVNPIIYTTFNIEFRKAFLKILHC
T2 sequence (P35462 whole entry): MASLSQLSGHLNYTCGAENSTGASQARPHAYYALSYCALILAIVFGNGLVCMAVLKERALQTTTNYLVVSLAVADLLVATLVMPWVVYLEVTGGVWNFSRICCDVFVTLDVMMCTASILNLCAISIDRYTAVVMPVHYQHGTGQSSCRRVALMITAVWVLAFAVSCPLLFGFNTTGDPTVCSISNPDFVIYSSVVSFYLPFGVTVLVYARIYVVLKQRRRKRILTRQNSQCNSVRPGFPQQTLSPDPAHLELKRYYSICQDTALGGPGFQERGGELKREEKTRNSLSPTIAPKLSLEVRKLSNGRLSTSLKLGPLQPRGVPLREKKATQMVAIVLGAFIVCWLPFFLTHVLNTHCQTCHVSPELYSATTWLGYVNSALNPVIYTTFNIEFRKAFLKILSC

| melting point [°C] | Ki [1] [nM] | Ki [2] [nM] | Selectivity Ki(D2)/Ki(D3) [2] | Structure (SMILES) |
| --- | --- | --- | --- | --- |
| 152 | – | – | – | CCCN(CCCCNC(=O)c1ccccc1)C1CCc2ncsc2C1 (stereo not drawn) (as salt: salt) [Compound 1, N-{4-[Propyl-(4,5,6,7-tetrahydro-benzothiazol-6-yl)-amino]-butyl}-benzamide] |
| 120 | – | – | – | CCN(CCCCNC(=O)c1ccc2ccccc2c1)C1CCc2ncsc2C1 (stereo not drawn) (as salt: salt) [Compound 4, Naphthalene-2-carboxylic acid {4-[ethyl-(4,5,6,7-tetrahydro-benzothiazol-6-yl)-amino]-butyl}-amide] |
| 85 | – | – | – | CCCN(CCCCC(=O)Nc1ccc2ccccc2c1)C1CCc2ncsc2C1 (stereo not drawn) (as salt: salt) [Compound 9, 5-[Propyl-(4,5,6,7-tetrahydro-benzothiazol-6-yl)-amino]-pentanoic acid naphthalen-2-ylamide] |
| – | 929 ± 103 | 26.5 ± 4.4 | 35 | CCN(CCN1CCc2ccccc2C1)C1CCc2ncsc2C1 (stereo not drawn) [Compound 31, [2-(3,4-Dihydro-1H-isoquinolin-2-yl)-ethyl]-ethyl-(4,5,6,7-tetrahydro-benzothiazol-6-yl)-amine] |
| – | 2550 ± 302 | 67.8 ± 21.4 | 38 | CCN(CCNC(=O)c1ccc2ccccc2c1)C1CCc2ncsc2C1 (stereo not drawn) [Compound 32, Naphthalene-2-carboxylic acid {2-[ethyl-(4,5,6,7-tetrahydro-benzothiazol-6-yl)-amino]-ethyl}-amide] |
| – | 5270 ± 1850 | 27.4 ± 14.8 | 192 | CCCN(CCN1CCN(C(=O)c2ccccc2)CC1)C1CCc2ncsc2C1 (stereo not drawn) [Compound 38, [2-(4-Benzoyl-piperazin-1-yl)-ethyl]-propyl-(4,5,6,7-tetrahydro-benzothiazol-6-yl)-amine] |
| – | 2180 ± 1640 | 3.36 ± 1.21 | 649 | CCCN(CCCCNC(=O)NC1Cc2ccccc2C1)C1CCc2ncsc2C1 (stereo not drawn) [Compound 60, 1-Indan-2-yl-3-{4-[propyl-(4,5,6,7-tetrahydrobenzothiazol-6-yl)amino]butyl}urea] |
| – | 3430 ± 1290 | 2.09 ± 0.57 | 1640 | CCCN(CCCCNC(=O)N1CCN(c2ccccc2)CC1)C1CCc2ncsc2C1 (stereo not drawn) [Compound 61, 4-Phenylpiperazine-1-carboxylic acid {4-[propyl-(4,5,6,7-tetrahydrobenzothiazol-6-yl)amino]butyl}amide] |
| – | 4880 ± 1890 | 7.31 ± 2.86 | 667 | CCCN(CCCCNC(=O)N1CC=C(c2ccccc2)CC1)C1CCc2ncsc2C1 (stereo not drawn) [Compound 62, 4-Phenyl-3,6-dihydro-2H-pyridine-1-carboxylic acid {4-[propyl-(4,5,6,7-tetrahydrobenzothiazol-6-yl)amino]butyl}amide] |
| – | 2730 ± 611 | 6.29 ± 1.8 | 435 | CCCN(CCCCNC(=O)N1CCC(c2ccccc2)CC1)C1CCc2ncsc2C1 (stereo not drawn) [Compound 64, 4-phenyl-N-(4-(propyl-(4,5,6,7-tetrahydrobenzo [d]thiazol-6-yl)amino)butyl)piperidine-1-carboxamide] |
| – | 4130 ± 1560 | 7.23 ± 1 | 572 | CCCN(CCCCC(=O)N1CCN(c2ccccc2)CC1)C1CCc2ncsc2C1 (stereo not drawn) [Compound 66, 1-(4-Phenylpiperazin-1-yl)-5-(propyl-(4,5,6,7-tetrahydrobenzothiazol-6-yl)amino)pentan-1-one] |
| – | 4670 ± 1320 | 51 ± 10 | 91 | CCCN(CCOc1ccccc1)C1CCc2ncsc2C1 (stereo not drawn) [Compound 69, N-(2-Phenoxyethyl)-N-propyl-4,5,6,7-tetrahydrobenzothiazol-6-amine] |

The next lines start with the molecule.

| Structure (SMILES) | melting point [°C] | Ki [1] [nM] | Ki [2] [nM] | Selectivity Ki(D2)/Ki(D3) [2] |
| --- | --- | --- | --- | --- |
| CN(CCCCNC(=O)c1ccc2ccccc2c1)C1CCc2ncsc2C1 (stereo not drawn) (as salt: salt) [Compound 3, Naphthalene-2-carboxylic acid {4-[methyl-(4,5,6,7-tetrahydro-benzothiazol-6-yl)-amino]-butyl}-amide] | 122 | – | – | – |
| C=CCN(CCCCNC(=O)c1ccc2ccccc2c1)C1CCc2ncsc2C1 (stereo not drawn) (as salt: salt) [Compound 6, Naphthalene-2-carboxylic acid {4-[allyl-(4,5,6,7-tetrahydro-benzothiazol-6-yl)-amino]-butyl}-amide] | 128 | – | – | – |
| C#CCN(CCCCNC(=O)c1ccc2ccccc2c1)C1CCc2ncsc2C1 (stereo not drawn) (as salt: salt) [Compound 7, Naphthalene-2-carboxylic acid {4-[prop-2-ynyl-(4,5,6,7-tetrahydro-benzothiazol-6-yl)-amino]-butyl}-amide] | 126 | – | – | – |
| CC#CCN(CCCCNC(=O)c1ccc2ccccc2c1)C1CCc2ncsc2C1 (stereo not drawn) (as salt: salt) [Compound 8, Naphthalene-2-carboxylic acid {4-[but-2-ynyl-(4,5,6,7-tetrahydro-benzothiazol-6-yl)-amino]-butyl}-amide] | 147 | – | – | – |
| CN(CCCCNC(=O)c1cc2ccccc2s1)C1CCc2ncsc2C1 (stereo not drawn) (as salt: salt) [Compound 11, Benzo[b]thiophene-2-carboxylic acid {4-[methyl-(4,5,6,7-tetrahydro-benzothiazol-6-yl)-amino]-butyl}-amide] | 105 | – | – | – |
| CCN(CCCCNC(=O)c1cc2ccccc2s1)C1CCc2ncsc2C1 (stereo not drawn) (as salt: salt) [Compound 12, Benzo[b]thiophene-2-carboxylic acid {4-[ethyl-(4,5,6,7-tetrahydro-benzothiazol-6-yl)-amino]-butyl}-amide] | 103 | – | – | – |
| CCN(CCN1CCN(c2ccccc2OC)CC1)C1CCc2ncsc2C1 (stereo not drawn) [Compound 28] | – | 148 ± 23 | 13.5 ± 1.1 | 11 |
| CCN(CCCN1CCN(c2ccccc2OC)CC1)C1CCc2ncsc2C1 (stereo not drawn) [Compound 29, Ethyl-{3-[4-(2-methoxy-phenyl)-piperazin-1-yl]-propyl}-(4,5,6,7-tetrahydro-benzothiazol-6-yl)-amine] | – | 140 ± 122 | 89 ± 1.7 | 2 |
| CCN(CCCCN1CCN(c2ccccc2OC)CC1)C1CCc2ncsc2C1 (stereo not drawn) [Compound 30, Ethyl-{4-[4-(2-methoxy-phenyl)-piperazin-1-yl]-butyl}-(4,5,6,7-tetrahydro-benzothiazol-6-yl)-amine] | – | 480 ± 51 | 55.3 ± 16.1 | 8.7 |
| CCCN(CCCN1CCN(c2cccc(Cl)c2Cl)CC1)C1CCc2ncsc2C1 (stereo not drawn) [Compound 36, {3-[4-(2,3-Dichloro-phenyl)-piperazin-1-yl]-propyl}-propyl-(4,5,6,7-tetrahydro-benzothiazol-6-yl)-amine] | – | 129 ± 36 | 35 ± 22 | 4 |
| CCCN(CCCCN1CCN(c2cccc(Cl)c2Cl)CC1)C1CCc2ncsc2C1 (stereo not drawn) [Compound 37, {4-[4-(2,3-Dichloro-phenyl)-piperazin-1-yl]-butyl}-propyl-(4,5,6,7-tetrahydro-benzothiazol-6-yl)-amine] | – | 79.4 ± 49.7 | 7.6 ± 1.6 | 7 |
| O=C(NCCCCNC1CCc2ncsc2C1)c1nc2ccccc2s1 (stereo not drawn) [Compound 63, N-(4-(4,5,6,7-Tetrahydrobenzo[d]thiazol-6-ylamino)butyl)benzo[d]thiazole-2-carboxamide] | – | 24500 ± 7580 | 1900 ± 510 | 13 |
| CCCN(CCCCNC(=O)C12CC3CC(CC(C3)C1)C2)C1CCc2ncsc2C1 (stereo not drawn) [Compound 65] | – | 2740 ± 1080 | 0.95 | 2879 |
